The values that follow come from patent US20210284639A1, “TYROSINE AMIDE DERIVATIVES AS RHO- KINASE INHIBITORS” (CHIESI FARMACEUTICI S.p.A., priority 2018, published 2021).

In one assay the target is ROCK 2 (Rho kinase 2) (Homo sapiens, UniProt O75116). Put plainly: In vitro inhibitory activity assay (ADP-Glo), Rho kinase 2. It counts as biochemical. Conditions: Ki by Cheng-Prusoff from IC50; 10 μM ATP, 25° C. Here is the method:
(§1) In Vitro Inhibitory Activity Assay Description
(§2) The effectiveness of compounds of the present invention to inhibit Rho kinase activity can be determined in a 10 μl assay containing 40 mM Tris pH7.5, 20 mM MgCl2 0.1 mg/ml BSA, 50 μM DTT and 2.5 μM peptide substrate (Myelin Basic Protein) using an ADP-Glo kit (Promega). Compounds were dissolved in DMSO such that the final concentration of DMSO was 1% in the assay. All reactions/incubations are performed at 25° C. Compound (2 μl) and either Rho kinase 1 or 2 (4 μl) were mixed and incubated for 30 mins. Reactions were initiated by addition of ATP (4 μl) such that the final concentration of ATP in the assay was 10 μM. After a 1 hour incubation 10 μl of ADP-Glo Reagent was added and after a further 45 minute incubation 20 μl of Kinase Detection Buffer was added and the mixture incubated for a further 30 minutes. The luminescent signal was measured on a luminometer. […] Compounds were tested in dose-response format and the inhibition of kinase activity was calculated at each concentration of compound. To determine the IC50 (concentration of compound required to inhibit 50% of the enzyme activity) data were fit to a plot of % inhibition vs Log10 compound concentration using a sigmoidal fit with a variable slope and fixing the maximum to 100% and the minimum to 0%. To determine the Ki values the Cheng-Prusoff equation was utilized (Ki=IC50/(1+[S]/Km).
A general note: ADP-Glo turns the ADP formed in a reaction into a luminescent signal.

For another assay, the target named is ROCK 1 (Rho kinase 1) (Homo sapiens, UniProt Q13464). Put plainly: In vitro inhibitory activity assay (ADP-Glo), Rho kinase 1. It counts as biochemical. To be noted: Ki by Cheng-Prusoff from IC50; 10 μM ATP, 25° C. Here is the method: as §1, §2
ROCK 1 (Rho kinase 1), sequence (Q13464 whole entry): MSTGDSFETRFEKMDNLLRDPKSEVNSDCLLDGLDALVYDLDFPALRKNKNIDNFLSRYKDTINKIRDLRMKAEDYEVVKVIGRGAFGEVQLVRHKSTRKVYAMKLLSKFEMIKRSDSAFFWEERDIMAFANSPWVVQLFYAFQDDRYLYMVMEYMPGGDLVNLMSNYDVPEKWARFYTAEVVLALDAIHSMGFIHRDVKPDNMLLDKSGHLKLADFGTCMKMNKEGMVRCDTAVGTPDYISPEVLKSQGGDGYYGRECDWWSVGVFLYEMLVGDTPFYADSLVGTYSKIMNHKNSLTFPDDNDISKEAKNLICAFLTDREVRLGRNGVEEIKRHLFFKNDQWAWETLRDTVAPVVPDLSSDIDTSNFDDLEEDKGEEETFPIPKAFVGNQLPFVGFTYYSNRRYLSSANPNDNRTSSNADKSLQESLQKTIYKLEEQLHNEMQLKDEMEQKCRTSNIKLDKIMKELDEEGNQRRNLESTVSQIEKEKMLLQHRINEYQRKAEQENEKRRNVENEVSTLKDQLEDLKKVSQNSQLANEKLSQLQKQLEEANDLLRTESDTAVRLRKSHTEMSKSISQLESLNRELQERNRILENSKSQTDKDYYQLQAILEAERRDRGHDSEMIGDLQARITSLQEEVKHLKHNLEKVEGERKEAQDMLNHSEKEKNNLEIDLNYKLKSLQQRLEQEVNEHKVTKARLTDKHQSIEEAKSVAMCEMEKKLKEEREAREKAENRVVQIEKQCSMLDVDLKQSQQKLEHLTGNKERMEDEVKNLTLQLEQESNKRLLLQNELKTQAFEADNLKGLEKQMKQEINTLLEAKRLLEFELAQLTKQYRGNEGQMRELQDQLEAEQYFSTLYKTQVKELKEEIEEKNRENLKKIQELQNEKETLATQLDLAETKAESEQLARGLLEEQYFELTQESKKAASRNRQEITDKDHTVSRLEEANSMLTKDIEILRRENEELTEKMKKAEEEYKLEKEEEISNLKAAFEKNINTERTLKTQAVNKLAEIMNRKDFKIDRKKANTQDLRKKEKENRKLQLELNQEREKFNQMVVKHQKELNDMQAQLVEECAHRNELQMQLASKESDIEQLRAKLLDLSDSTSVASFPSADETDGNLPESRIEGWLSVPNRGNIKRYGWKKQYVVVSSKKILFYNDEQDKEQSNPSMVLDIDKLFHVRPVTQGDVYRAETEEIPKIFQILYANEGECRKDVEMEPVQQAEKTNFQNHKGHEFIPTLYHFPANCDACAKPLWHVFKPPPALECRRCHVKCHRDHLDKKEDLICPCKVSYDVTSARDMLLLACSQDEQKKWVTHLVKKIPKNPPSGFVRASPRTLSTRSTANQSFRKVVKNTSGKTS

Structures are written as SMILES.

ROCK 2 (Rho kinase 2), sequence (O75116 whole entry): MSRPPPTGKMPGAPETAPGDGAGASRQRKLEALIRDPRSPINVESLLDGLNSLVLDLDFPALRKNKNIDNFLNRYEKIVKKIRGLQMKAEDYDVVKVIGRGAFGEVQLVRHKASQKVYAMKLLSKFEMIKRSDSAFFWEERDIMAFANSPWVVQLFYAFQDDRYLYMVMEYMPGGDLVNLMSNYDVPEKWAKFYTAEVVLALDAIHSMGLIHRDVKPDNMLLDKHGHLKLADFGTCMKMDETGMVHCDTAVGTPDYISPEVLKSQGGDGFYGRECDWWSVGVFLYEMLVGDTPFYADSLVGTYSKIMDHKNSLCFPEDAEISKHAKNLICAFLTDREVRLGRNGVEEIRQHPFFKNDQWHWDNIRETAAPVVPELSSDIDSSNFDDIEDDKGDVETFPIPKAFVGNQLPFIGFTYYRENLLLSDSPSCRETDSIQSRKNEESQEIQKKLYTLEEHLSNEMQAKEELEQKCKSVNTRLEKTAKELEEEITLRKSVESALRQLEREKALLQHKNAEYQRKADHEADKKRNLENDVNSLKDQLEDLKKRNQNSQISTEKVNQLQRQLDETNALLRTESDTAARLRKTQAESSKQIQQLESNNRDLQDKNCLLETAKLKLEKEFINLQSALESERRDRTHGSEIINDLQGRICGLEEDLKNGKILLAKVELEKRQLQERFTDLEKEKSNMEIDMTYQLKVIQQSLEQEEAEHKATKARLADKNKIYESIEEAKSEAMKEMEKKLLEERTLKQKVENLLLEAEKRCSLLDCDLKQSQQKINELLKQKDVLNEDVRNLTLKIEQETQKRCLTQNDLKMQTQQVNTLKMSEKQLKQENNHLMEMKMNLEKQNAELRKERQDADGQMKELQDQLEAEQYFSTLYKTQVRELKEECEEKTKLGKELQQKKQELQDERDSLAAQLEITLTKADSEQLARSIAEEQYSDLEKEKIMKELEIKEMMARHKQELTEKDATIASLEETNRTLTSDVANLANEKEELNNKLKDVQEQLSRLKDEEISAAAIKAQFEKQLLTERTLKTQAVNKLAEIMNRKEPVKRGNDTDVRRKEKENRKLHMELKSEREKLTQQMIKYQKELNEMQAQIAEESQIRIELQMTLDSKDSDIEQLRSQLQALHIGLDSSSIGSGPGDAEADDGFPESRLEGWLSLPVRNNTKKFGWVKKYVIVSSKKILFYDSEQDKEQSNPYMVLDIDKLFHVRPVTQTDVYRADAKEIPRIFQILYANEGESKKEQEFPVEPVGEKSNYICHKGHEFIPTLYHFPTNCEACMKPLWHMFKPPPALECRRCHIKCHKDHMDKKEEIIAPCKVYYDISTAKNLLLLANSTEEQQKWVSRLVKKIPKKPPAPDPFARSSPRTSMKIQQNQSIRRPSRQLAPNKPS

As a reminder, the Ki is the equilibrium dissociation constant of an inhibitor or competing ligand from its target. Low readings indicate a stronger hold on the target, high ones a looser hold on the target. Turning to `Cc1c[nH]c2nccc(Oc3ccc(C[C@H](N)C(=O)N4CCc5cnccc5C4)cc3F)c12` [Example 25, (S)-2-Amino-1-(3,4-dihydro-2,6-naphthyridin-2(1H)-yl)-3-(3-fluoro-4-((3-methyl-1H-pyrrolo[2,3-b]pyridin-4-yl)oxy)phenyl)propan-1-one], the Ki on ROCK 2 (Rho kinase 2) and at ROCK 1 (Rho kinase 1) was < 3 nM each time.
For the compound `Cc1c[nH]c2nccc(Oc3ccc(C[C@H](N)C(=O)N4CCc5ncccc5C4)cc3F)c12` [Example 26, (S)-2-amino-1-(7,8-dihydro-1,6-naphthyridin-6(5H)-yl)-3-(3-fluoro-4-((3-methyl-1H-pyrrolo[2,3-b]pyridin-4-yl)oxy)phenyl)propan-1-one], the inhibition constant (Ki) at ROCK 2 (Rho kinase 2) and on ROCK 1 (Rho kinase 1) was < 3 nM in each case.
Take `Cc1c[nH]c2nccc(Oc3ccc(C[C@H](N)C(=O)NC4(C(N)=O)CCC4)cc3F)c12` [Example 27, (S)-1-(2-Amino-3-(3-fluoro-4-((3-methyl-1H-pyrrolo[2,3-b]pyridin-4-yl)oxy)phenyl)propanamido)cyclobutane-1-carboxamide]: the inhibitory constant (Ki) at ROCK 2 (Rho kinase 2) and on ROCK 1 (Rho kinase 1) was < 3 nM each time.
For the compound `CNC(=O)C1(NC(=O)[C@@H](N)Cc2ccc(Oc3ccnc4[nH]cc(C)c34)c(F)c2)CCCC1` [Example 28, (S)-1-(2-amino-3-(3-fluoro-4-((3-methyl-1H-pyrrolo[2,3-b]pyridin-4-yl)oxy)phenyl)propanamido)-N-methylcyclopentane-1-carboxamide], the Ki on ROCK 2 (Rho kinase 2) and on ROCK 1 (Rho kinase 1) was < 3 nM each time.
On to `CNC(=O)C1(NC(=O)[C@@H](N)Cc2ccc(Oc3ccnc4[nH]cc(C)c34)c(F)c2)CCCCC1` [Example 29, (S)-1-(2-amino-3-(3-fluoro-4-((3-methyl-1H-pyrrolo[2,3-b]pyridin-4-yl)oxy)phenyl)propanamido)-N-methylcyclohexane-1-carboxamide], for which the inhibition constant Ki on ROCK 2 (Rho kinase 2) and at ROCK 1 (Rho kinase 1) was < 3 nM in each case.
Turning to `Cc1c[nH]c2nccc(Oc3ccc(C[C@H](N)C(=O)NC4(CO)CCC4)cc3F)c12` [Example 30, (S)-2-amino-3-(3-fluoro-4-((3-methyl-1H-pyrrolo[2,3-b]pyridin-4-yl)oxy)phenyl)-N-(1-(hydroxymethyl)cyclobutyl)propanamide], the inhibitory constant (Ki) at ROCK 2 (Rho kinase 2) and on ROCK 1 (Rho kinase 1) was < 3 nM in each case.
As for `Cc1cccc(S(=O)(=O)C2CCN(C(=O)[C@@H](N)Cc3ccc(Oc4ccnc5[nH]cc(C)c45)c(F)c3)CC2)c1` [Example 31, (S)-2-Amino-3-(3-fluoro-4-((3-methyl-1H-pyrrolo[2,3-b]pyridin-4-yl)oxy)phenyl)-1-(4-(m-tolylsulfonyl)piperidin-1-yl)propan-1-one], the Ki on ROCK 2 (Rho kinase 2) and on ROCK 1 (Rho kinase 1) was < 3 nM in each case.
`Cc1c[nH]c2ncnc(Oc3ccc(C[C@H](N)C(=O)NC4(C(N)=O)CCCCC4)cc3F)c12` [Example 32, (S)-1-(2-amino-3-(3-fluoro-4-((5-methyl-7H-pyrrolo[2,3-d]pyrimidin-4-yl)oxy)phenyl)propanamido)cyclohexanecarboxamide]: the Ki on ROCK 2 (Rho kinase 2) is < 3 nM; on ROCK 1 (Rho kinase 1), 3 to 30 nM.
As to `CNC(=O)C1(NC(=O)[C@@H](N)Cc2ccc(Oc3ncnc4[nH]cc(C)c34)c(F)c2)CCCCC1` [Example 33, (S)-1-(2-amino-3-(3-fluoro-4-((5-methyl-7H-pyrrolo[2,3-d]pyrimidin-4-yl)oxy)phenyl)propanamido)-N-methylcyclohexanecarboxamide], the Ki on ROCK 2 (Rho kinase 2) and on ROCK 1 (Rho kinase 1) was < 3 nM each time.
`Cc1c[nH]c2ncnc(Oc3ccc(C[C@H](N)C(=O)NC4(CCO)CCCCC4)cc3F)c12` [Example 34, (S)-2-amino-3-(3-fluoro-4-((5-methyl-7H-pyrrolo[2,3-d]pyrimidin-4-yl)oxy)phenyl)-N-(1-(2-hydroxyethyl)cyclohexyl)propanamide]: the Ki on ROCK 2 (Rho kinase 2) and on ROCK 1 (Rho kinase 1) was < 3 nM each time.
As for `Cc1c[nH]c2ncnc(Oc3ccc(C[C@H](N)C(=O)NC4(CO)CCCCC4)cc3F)c12` [Example 35, (S)-2-Amino-3-(3-fluoro-4-((5-methyl-7H-pyrrolo[2,3-d]pyrimidin-4-yl)oxy)phenyl)-N-(1-(hydroxymethyl)cyclohexyl)propanamide], the Ki on ROCK 2 (Rho kinase 2) and at ROCK 1 (Rho kinase 1) was < 3 nM in each case.
For `Cc1c[nH]c2ncnc(Oc3ccc(C[C@H](N)C(=O)NC4(CO)CCOCC4)cc3F)c12` [Example 36, (S)-2-Amino-3-(3-fluoro-4-((5-methyl-7H-pyrrolo[2,3-d]pyrimidin-4-yl)oxy)phenyl)-N-(4-(hydroxymethyl)tetrahydro-2H-pyran-4-yl)propanamide], the inhibition constant Ki at ROCK 2 (Rho kinase 2) is < 3 nM; at ROCK 1 (Rho kinase 1) it was 3 to 30 nM.
For `Cc1c[nH]c2ncnc(Oc3ccc(C[C@H](N)C(=O)N4CCC(S(=O)(=O)c5ccc(F)cc5)CC4)cc3F)c12` [Example 37, (S)-2-Amino-3-(3-fluoro-4-((5-methyl-7H-pyrrolo[2,3-d]pyrimidin-4-yl)oxy)phenyl)-1-(4-((4-fluorophenyl)sulfonyl)piperidin-1-yl)propan-1-one], the Ki on ROCK 2 (Rho kinase 2) and on ROCK 1 (Rho kinase 1) was < 3 nM throughout.
On to `Cc1c[nH]c2ncnc(Oc3ccc(C[C@H](N)C(=O)N4CC[C@H](S(=O)(=O)c5ccccc5)C4)cc3F)c12` [Example 38, (S)-2-Amino-3-(3-fluoro-4-((5-methyl-7H-pyrrolo[2,3-d]pyrimidin-4-yl)oxy)phenyl)-1-((S)-3-(phenylsulfonyl)pyrrolidin-1-yl)propan-1-one], for which the inhibition constant Ki at ROCK 2 (Rho kinase 2) and at ROCK 1 (Rho kinase 1) was < 3 nM each time.
`Cc1c[nH]c2ncnc(Oc3ccc(C[C@H](N)C(=O)NC4CCN(C5CC5)CC4)cc3F)c12` [Example 39, (S)-2-Amino-N-(1-cyclopropylpiperidin-4-yl)-3-(3-fluoro-4-((5-methyl-7H-pyrrolo[2,3-d]pyrimidin-4-yl)oxy)phenyl)propanamide]: the Ki on ROCK 2 (Rho kinase 2) and at ROCK 1 (Rho kinase 1) was < 3 nM each time.
Consider `CN1CCC(NC(=O)[C@@H](N)Cc2ccc(Oc3ccnc4[nH]cc(C5CC5)c34)c(F)c2)CC1` [Example 40, (S)-2-Amino-3-(4-((3-cyclopropyl-1H-pyrrolo[2,3-b]pyridin-4-yl)oxy)-3-fluorophenyl)-N-(1-methylpiperidin-4-yl)propanamide], for which the Ki at ROCK 2 (Rho kinase 2) and at ROCK 1 (Rho kinase 1) was < 3 nM throughout.
Consider `Cc1c[nH]c2ncnc(Oc3c(F)cc(C[C@H](N)C(=O)N4CCC(S(=O)(=O)c5ccccc5)CC4)cc3F)c12` [Example 41, (S)-2-Amino-3-(3,5-difluoro-4-((5-methyl-7H-pyrrolo[2,3-d]pyrimidin-4-yl)oxy)phenyl)-1-(4-(phenylsulfonyl)piperidin-1-yl)propan-1-one], for which the Ki on ROCK 2 (Rho kinase 2) and on ROCK 1 (Rho kinase 1) was < 3 nM in each case.
For `Cc1c[nH]c2nccc(Oc3c(F)cc(C[C@H](N)C(=O)N4CCC(S(=O)(=O)c5ccccc5)CC4)cc3F)c12` [Example 42, (S)-2-amino-3-(3,5-difluoro-4-((3-methyl-1H-pyrrolo[2,3-b]pyridin-4-yl)oxy)phenyl)-1-(4-(phenylsulfonyl)piperidin-1-yl)propan-1-one], the Ki on ROCK 2 (Rho kinase 2) and at ROCK 1 (Rho kinase 1) was < 3 nM in each case.
Consider `COCCNC(=O)C1(NC(=O)[C@@H](N)Cc2ccc(Oc3ccnc4[nH]cc(C)c34)c(F)c2)CCCCC1` [Example 43, (S)-1-(2-amino-3-(3-fluoro-4-((3-methyl-1H-pyrrolo[2,3-b]pyridin-4-yl)oxy)phenyl)propanamido)-N-(2-methoxyethyl)cyclohexanecarboxamide], for which the Ki on ROCK 2 (Rho kinase 2) and at ROCK 1 (Rho kinase 1) was < 3 nM each time.
For `Cc1c[nH]c2nccc(Oc3ccc(C[C@H](N)C(=O)NC4(C(=O)NCCO)CCCCC4)cc3F)c12` [Example 44, (S)-1-(2-amino-3-(3-fluoro-4-((3-methyl-1H-pyrrolo[2,3-b]pyridin-4-yl)oxy)phenyl)propanamido)-N-(2-hydroxyethyl)cyclohexanecarboxamide], the Ki on ROCK 2 (Rho kinase 2) and at ROCK 1 (Rho kinase 1) was < 3 nM in each case.
As for `Cc1c[nH]c2nccc(Oc3ccc(C[C@H](N)C(=O)N(C)C)cc3F)c12` [Example 45, (S)-2-amino-3-(3-fluoro-4-((3-methyl-1H-pyrrolo[2,3-b]pyridin-4-yl)oxy)phenyl)-N,N-dimethylpropanamide], the inhibitory constant (Ki) at ROCK 2 (Rho kinase 2) was < 3 nM; at ROCK 1 (Rho kinase 1), 3 to 30 nM.
Taken in the same sequence, the figures for `CNC(=O)[C@@H](N)Cc1ccc(Oc2ccnc3[nH]cc(C)c23)c(F)c1` [Example 46, (S)-2-amino-3-(3-fluoro-4-((3-methyl-1H-pyrrolo[2,3-b]pyridin-4-yl)oxy)phenyl)-N-methylpropanamide] were < 3 nM and < 3 nM.
For the compound `Cc1c[nH]c2nccc(Oc3ccc(C[C@H](N)C(N)=O)cc3F)c12` [Example 47, (S)-2-amino-3-(3-fluoro-4-((3-methyl-1H-pyrrolo[2,3-b]pyridin-4-yl)oxy)phenyl)propanamide], the Ki on ROCK 2 (Rho kinase 2) and on ROCK 1 (Rho kinase 1) was < 3 nM in each case.
